Data: patent publication CN105267200A, “一种黄酮类化合物的应用” (Shanghai Institute of Organic Chemistry of CAS, priority 2014, dated 2016)

Target: T1, mTORC1 (Homo sapiens, UniProt P42345)
T1 construct: purchased sigma试剂有限公司 (Sigma) SRP0364
Assay: mTORC1 enzyme activity inhibition (phosphorylation of 5-FAM substrate peptide STTPGGTLFSTTPG), capillary electrophoresis with laser-induced fluorescence
Format: biochemical
Conditions: mTORC1 31.1 nM, substrate peptide 2 μM, 20 min; for inhibition at 1.25 µM: compound 1.25 μM, read-out: inhibition of the catalytic activity of mTORC1

T1 sequence (P42345 1362-2549 limits assumed): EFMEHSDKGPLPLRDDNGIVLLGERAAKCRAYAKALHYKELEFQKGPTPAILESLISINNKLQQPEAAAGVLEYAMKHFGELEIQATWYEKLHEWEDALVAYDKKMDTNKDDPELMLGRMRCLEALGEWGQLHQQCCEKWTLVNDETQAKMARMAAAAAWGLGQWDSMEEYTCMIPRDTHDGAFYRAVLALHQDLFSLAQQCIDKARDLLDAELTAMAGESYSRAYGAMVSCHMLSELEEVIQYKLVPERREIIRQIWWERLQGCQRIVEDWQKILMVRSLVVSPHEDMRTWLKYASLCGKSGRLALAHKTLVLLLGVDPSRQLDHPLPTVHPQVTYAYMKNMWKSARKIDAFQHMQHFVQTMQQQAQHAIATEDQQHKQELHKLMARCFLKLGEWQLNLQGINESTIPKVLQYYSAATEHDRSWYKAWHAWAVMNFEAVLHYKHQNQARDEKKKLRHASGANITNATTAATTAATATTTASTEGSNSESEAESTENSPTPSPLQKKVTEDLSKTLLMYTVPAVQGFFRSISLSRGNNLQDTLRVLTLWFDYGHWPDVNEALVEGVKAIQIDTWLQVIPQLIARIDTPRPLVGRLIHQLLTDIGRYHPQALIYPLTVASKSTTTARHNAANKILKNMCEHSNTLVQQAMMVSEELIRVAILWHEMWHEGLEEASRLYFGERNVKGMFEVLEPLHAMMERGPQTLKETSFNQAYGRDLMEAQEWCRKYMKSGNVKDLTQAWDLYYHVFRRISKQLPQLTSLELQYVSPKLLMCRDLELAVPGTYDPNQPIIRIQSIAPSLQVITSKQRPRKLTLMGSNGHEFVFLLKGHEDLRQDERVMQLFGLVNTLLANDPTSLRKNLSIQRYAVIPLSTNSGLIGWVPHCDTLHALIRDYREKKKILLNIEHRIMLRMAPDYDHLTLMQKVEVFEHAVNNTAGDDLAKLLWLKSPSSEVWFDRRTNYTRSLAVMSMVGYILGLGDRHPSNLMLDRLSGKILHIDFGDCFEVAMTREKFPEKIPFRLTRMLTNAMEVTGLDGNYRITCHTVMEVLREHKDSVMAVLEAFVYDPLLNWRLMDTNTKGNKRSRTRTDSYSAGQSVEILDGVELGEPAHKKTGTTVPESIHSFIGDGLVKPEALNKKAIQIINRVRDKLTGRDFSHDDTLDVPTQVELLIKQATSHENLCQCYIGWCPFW

| inhibition at 1.25 µM | Structure (SMILES) | IC50 (nonlinear fit Origin 8.0) | inhibition percentage (quercetin 0.05 nmol/L) | inhibition percentage (quercetin 0.5 nmol/L) | inhibition percentage (quercetin 5 nmol/L) | inhibition percentage (quercetin 50 nmol/L) | inhibition percentage (quercetin 250 nmol/L) | inhibition of mTORC1 phosphorylation of the substrate peptide (in words, electropherogram Fig. 1C) (quercetin 0.5 μM, 25℃) | inhibition percentage (quercetin 500 nmol/L) | inhibition percentage (quercetin 5×10^3 nmol/L) | inhibition percentage (quercetin 5×10^4 nmol/L) | inhibition percentage (quercetin 5×10^5 nmol/L) |
| --- | --- | --- | --- | --- | --- | --- | --- | --- | --- | --- | --- | --- |
|  | O=c1c(O)c(-c2ccc(O)c(O)c2)oc2cc(O)cc(O)c12 [槲皮素] | 377 nM | 0% | 0% | 0% | 8% | 47% | 可以有效抑制 | 53% | 97% | 100% | 100% |
| 25% | O=c1c(O[C@@H]2O[C@H](CO)[C@H](O)[C@H](O)[C@H]2O)c(-c2ccc(O)c(O)c2)oc2cc(O)cc(O)c12 [金丝桃苷, reference compound] |  |  |  |  |  |  |  |  |  |  |  |
| 25% | O=c1cc(-c2ccccc2)oc2cc(O)c(O)c(O)c12 [黄芩素, reference compound] |  |  |  |  |  |  |  |  |  |  |  |
